The source of these data is patent US7449477B2, “7-phenyl-isoquinoline-5-sulfonylamino derivatives as inhibitors of akt (protein kinase B)” (Eli Lilly and Company, priority 2003, dated 2008).

Counter-ions that a name gives are not always drawn. A value given as a limit tells only on which side of the number the result lay.

As a reminder, the IC50 is the point on the concentration scale where inhibition reaches its midpoint.

For this assay, the target named is T1, active human Akt1 (Homo sapiens, UniProt P31749).
T1 construct: Active human recombinant Akt1 (full-length) purified from Sf9 insect cells; purchased Upstate Biotechnology, Inc. 14-276; host or cells: Sf9 insect cells
T1 sequence (P31749 whole entry): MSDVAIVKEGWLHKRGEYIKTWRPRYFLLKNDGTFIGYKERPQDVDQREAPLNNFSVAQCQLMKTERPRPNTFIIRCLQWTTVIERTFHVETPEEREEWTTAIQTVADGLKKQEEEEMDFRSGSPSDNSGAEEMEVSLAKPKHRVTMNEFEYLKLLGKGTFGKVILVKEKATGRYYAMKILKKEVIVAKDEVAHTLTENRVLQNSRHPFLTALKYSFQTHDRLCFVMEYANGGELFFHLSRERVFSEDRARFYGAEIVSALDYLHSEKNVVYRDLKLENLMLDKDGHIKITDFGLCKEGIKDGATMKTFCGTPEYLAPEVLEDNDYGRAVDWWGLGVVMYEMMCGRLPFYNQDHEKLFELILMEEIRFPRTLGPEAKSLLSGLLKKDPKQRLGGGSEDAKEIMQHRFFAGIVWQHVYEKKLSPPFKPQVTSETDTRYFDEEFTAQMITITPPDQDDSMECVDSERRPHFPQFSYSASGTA
The assay is described as follows: Akt1 Phosphorylation Assay (phosphocellulose filter-binding, 33P-Crosstide). Type of assay: biochemical. The following applies: active human recombinant Akt1 (full-length) 10 nM; 12.5 μM Crosstide; 20 μM ATP; 30 minutes at room temperature. How it is done:
Akt1 Phosphorylation Assay
The assay described measures the phosphorylation of Crosstide by active human Akt1 and other Akt isoforms. Crosstide contains a consensus sequence derived from Akt substrates GSK3b and forkhead transcription factors (FKs). The ^33P-labeled Crosstide substrate is captured by phosphocellulose membrane filter plates.
Active human recombinant Akt1 (full-length) purified from Sf9 insect cells is from Upstate Biotechnology, Inc. (Cat. #14-276, 405 μg/ml). Crosstide substrate, NH2-GRPRTSSFAEG-COOH (M.W.1164) is purchased from Multiple Peptide System (Cat. # L59/GR145-153).
Solution (A): 20% DMSO (dimethylsulphoxide) or Compound in 20% DMSO; Solution (B): Assay Buffer Mix: 31.25 μM Crosstide, 37.5 mM MgCl2, 87.5 mM HEPES, pH 7.3, 50 μM ATP γ-^33P-ATP, 0.05 μCi/μl; Solution (C): Akt Kinase Mix: 31.25 mM HEPES, pH 7.3; 1 mM DTT, 25 nM UBI Akt1.
Procedure for Phosphocellulose Filter-Binding Assay
Ten μl of Solution (A) are first mixed with 20 μl Solution (B). The enzymatic reaction is initiated by adding 20 μl Solution (C) to the mixture. (Final concentration or amount in a 50-μl reaction mix: 4% DMSO or various compound concentration in 4% DMSO; 12.5 μM Crosstide; 15 mM MgCl2; 35 mM HEPES, pH7.3; 20 μM ATP; 1 μCi γ-^33P-ATP; 0.4 mM DTT; 10 nM UBI Akt1.) The reactions are performed in 96-well microtiter plates.
After 30 minutes at room temperature, the reaction is terminated by adding 80 μl of 10% H3PO4. An aliquot of 100 μl from each well is transferred to the phosphocellulose filter plate (Millipore MultiScreen, Catalog #MAPHN0B50). After 30 minutes, the reaction mix is filtered with a Millipore manifold following by 3 washes with 0.5% H3PO4. The filter is then vacuum-dried and the plate is fitted onto a Packard carrier. 100 μl/well Microscint20 are added and the contents are counted in a Packard Top Count.
Regarding `O=S1(=O)CCN(c2cc(Cl)ccc2CCCNCCNS(=O)(=O)c2cc(-c3ccccc3)cc3cnccc23)CC1` [Example 52, 7-Phenyl-isoquinoline-5-sulfonic acid {2-[3-(4-chloro-2-(1,1-dioxo-thiomorpholin-4-yl)-phenyl)-propylamino]-ethyl}-amide, trihydrochloride salt], the half-maximal inhibitory concentration (IC50) was not above 2000 nM.

Regarding `O=S(=O)(NCCNCCCc1cccc(O)c1)c1cc(-c2ccccc2)cc2cnccc12` [Example 18, 7-Phenyl-isoquinoline-5-sulfonic acid {2-[3-(3-hydroxyphenyl)-propylamino]-ethyl}-amide, dihydrochloride salt], the 50% inhibitory concentration (IC50) is not above 2000 nM.

With `O=[N+]([O-])c1ccc(C(O)C(O)CNCCNS(=O)(=O)c2cc(-c3ccccc3)cc3cnccc23)cc1` (stereo not shown) [Example 87, 7-Phenyl-isoquinoline-5-sulfonic acid [2-(2,3-dihydroxy-3-(4-nitrophenyl)-propylamino)-ethyl]-amide, dihydrochloride salt], the 50% inhibitory concentration (IC50) is not above 2000 nM.

As to `CN1CCC(Oc2cc(Cl)ccc2CCCNCCNS(=O)(=O)c2cc(-c3ccccc3)cc3cnccc23)C1` (stereo not shown) [Example 55, 7-Phenyl-isoquinoline-5-sulfonic acid {2-[3-(4-chloro-2-(1-methyl-pyrrolidin-3-yl)oxy-phenyl)-propylamino]-ethyl}-amide, trihydrochloride salt], the half-maximal inhibitory concentration (IC50) was not above 2000 nM.

As for `O=[N+]([O-])c1ccc(CCCNCCNS(=O)(=O)c2cc(-c3ccccc3)cc3cnccc23)cc1O` [Example 105, 7-Phenyl-isoquinoline-5-sulfonic acid {2-[3-(3-hydroxy-4-nitro-phenyl)-propylamino]-ethyl}-amide, dihydrochloride salt], the IC50 is not above 2000 nM.

For `CC1CN(c2cc(Cl)ccc2CCCNCCNS(=O)(=O)c2cc(-c3ccccc3)cc3cnccc23)CCN1` (stereo not shown) [Example 54, 7-Phenyl-isoquinoline-5-sulfonic acid {2-[3-(4-chloro-2-(3-methyl-piperazin-1-yl)-phenyl)-propylamino]-ethyl}-amide, tetrahydrochloride salt], the concentration for half-maximal inhibition (IC50) is not above 2000 nM.

With `O=[N+]([O-])c1ccc(C(O)CCNCCNS(=O)(=O)c2cc(-c3ccccc3)cc3cnccc23)cc1` (stereo not shown) [Example 73, 7-Phenyl-isoquinoline-5-sulfonic acid [2-(3-hydroxy-3-(4-nitrophenyl)-propylamino)-ethyl]-amide, dihydrochloride salt], the IC50 was not above 2000 nM.

Turning to `N#Cc1ccc(CCCNCCNS(=O)(=O)c2cc(-c3ccccc3)cc3cnccc23)cc1C(F)(F)F` [Example 67, 7-Phenyl-isoquinoline-5-sulfonic acid {2-[3-(4-cyano-3-trifluoromethylphenyl)-propylamino]-ethyl}-amide, dihydrochloride salt], the half-inhibitory concentration (IC50) is not above 2000 nM.

In the case of `Cc1cc([N+](=O)[O-])ccc1CCCNCCNS(=O)(=O)c1cc(-c2ccccc2)cc2cnccc12` [Example 40, 7-Phenyl-isoquinoline-5-sulfonic acid {2-[3-(2-methyl-4-nitrophenyl)-propylamino]-ethyl}-amide, dihydrochloride salt], the half-maximal inhibitory concentration (IC50) was not above 2000 nM.

In the case of `O=S(=O)(NCCNCCCc1ccccc1N1CCNCC1)c1cc(-c2ccccc2)cc2cnccc12` [Example 11, 7-Phenyl-isoquinoline-5-sulfonic acid {2-[3-(2-(piperazin-1-yl-phenyl)-propylamino]-ethyl}-amide, tetrahydrochloride salt], the half-inhibitory concentration (IC50) is not above 2000 nM.

Take `O=C(Nc1ccc(CCCNCCNS(=O)(=O)c2cc(-c3ccccc3)cc3cnccc23)cc1)C1CC1` [Example 25, 7-Phenyl-isoquinoline-5-sulfonic acid {2-[3-(4-(cyclopropyl-carbonylamino)phenyl)-propylamino]-ethyl}-amide, dihydrochloride salt]: the IC50 was not above 2000 nM.

In the case of `CCCNS(=O)(=O)c1ccc(CCCNCCNS(=O)(=O)c2cc(-c3ccccc3)cc3cnccc23)cc1` [Example 21, 7-Phenyl-isoquinoline-5-sulfonic acid {2-[3-(4-(N-propylamino-sulfonyl)phenyl)-propylamino]-ethyl}-amide, dihydrochloride salt], the IC50 is not above 2000 nM.

Consider `O=[N+]([O-])c1ccc(CC(O)CNCCNS(=O)(=O)c2cc(-c3ccccc3)cc3cnccc23)cc1` (single isomer, unassigned; isomer 1) [Example 85, 7-Phenyl-isoquinoline-5-sulfonic acid [2-(2-hydroxy-3-(4-nitrophenyl)-propylamino)-ethyl]-amide isomer 1, dihydrochloride salt], for which the 50% inhibitory concentration (IC50) is not above 2000 nM.

As to `CN1CCN(c2cc(Cl)ccc2CCCNCCNS(=O)(=O)c2cc(-c3ccccc3)cc3cnccc23)CC1` [Example 49, 7-Phenyl-isoquinoline-5-sulfonic acid {2-[3-(4-chloro-2-(4-methyl-piperazin-1-yl)-phenyl)-propylamino]-ethyl}-amide, tetrahydrochloride salt], the IC50 was not above 2000 nM.

`O=S(=O)(NCCNCCCc1cccc(F)c1F)c1cc(-c2ccccc2)cc2cnccc12` [Example 68, 7-Phenyl-isoquinoline-5-sulfonic acid {2-[3-(2,3-difluorophenyl)-propylamino]-ethyl}-amide, dihydrochloride salt]: the half-inhibitory concentration (IC50) is not above 2000 nM.

As to `COc1cccc(CCCNCCNS(=O)(=O)c2cc(-c3ccccc3)cc3cnccc23)c1` [Example 31, 7-Phenyl-isoquinoline-5-sulfonic acid {2-[3-(3-methoxyphenyl)-propylamino]-ethyl}-amide, dihydrochloride salt], the IC50 was not above 2000 nM.

In the case of `O=S(=O)(NCCNCCCc1ccc(S(=O)(=O)C(F)(F)F)cc1)c1cc(-c2ccccc2)cc2cnccc12` [Example 102, 7-Phenyl-isoquinoline-5-sulfonic acid {2-[3-(4-trifluoromethanesulfonyl-phenyl)-propylamino]-ethyl}-amide, dihydrochloride salt], the IC50 is not above 2000 nM.

As for `O=C(O)c1cc([N+](=O)[O-])ccc1CCCNCCNS(=O)(=O)c1cc(-c2ccccc2)cc2cnccc12` [Example 64, 7-Phenyl-isoquinoline-5-sulfonic acid {2-[3-(2-carboxy-4-nitrophenyl)-propylamino]-ethyl}-amide, dihydrochloride salt], the IC50 is not above 2000 nM.

On to `O=[N+]([O-])c1ccc(CCCNCCNS(=O)(=O)c2cc(-c3ccccc3)cc3cnccc23)c(-c2ccccc2)c1` [Example 42, 7-Phenyl-isoquinoline-5-sulfonic acid {2-[3-(5-nitro-biphenyl-2-yl)-propylamino]-ethyl}-amide, dihydrochloride salt], for which the half-maximal inhibitory concentration (IC50) was not above 2000 nM.

Consider `CCc1cc([N+](=O)[O-])ccc1CCCNCCNS(=O)(=O)c1cc(-c2ccccc2)cc2cnccc12` [Example 103, 7-Phenyl-isoquinoline-5-sulfonic acid {2-[3-(2-ethyl-4-nitro-phenyl)-propylamino]-ethyl}-amide, dihydrochloride salt], for which the IC50 was not above 2000 nM.

Regarding `CN(C)S(=O)(=O)c1ccc(CCCNCCNS(=O)(=O)c2cc(-c3ccccc3)cc3cnccc23)cc1` [Example 24, 7-Phenyl-isoquinoline-5-sulfonic acid {2-[3-(4-(N,N-dimethyl-aminosulfonyl)phenyl)-propyl-amino]-ethyl}-amide, dihydrochloride salt], the IC50 is not above 2000 nM.

`Nc1ccc(-c2cc(S(=O)(=O)NCCNCCCc3ccc([N+](=O)[O-])cc3)c3ccncc3c2)cc1` [Example 90, 7-(4-aminophenyl)-isoquinoline-5-sulfonic acid [2-(3-(4-nitrophenyl)-propylamino)-ethyl]-amide, trihydrochloride salt]: the IC50 was not above 2000 nM.

`O=S(=O)(NCCNCCCc1ccc(Cl)cc1N1CCNCC1)c1cc(-c2ccccc2)cc2cnccc12` [Example 44, 7-Phenyl-isoquinoline-5-sulfonic acid {2-[3-(4-chloro-2-piperazin-1-yl-phenyl)-propylamino]-ethyl}-amide, tetrahydrochloride salt]: the IC50 is not above 2000 nM.

Turning to `N#Cc1ccc(CCCNCCNS(=O)(=O)c2cc(-c3ccccc3)cc3cnccc23)cc1` [Example 33, 7-Phenyl-isoquinoline-5-sulfonic acid {2-[3-(4-cyanophenyl)-propylamino]-ethyl}-amide, dihydrochloride salt], the IC50 is not above 2000 nM.

As to `O=[N+]([O-])c1ccc(CCCNCCNS(=O)(=O)c2cc(-c3ccccc3O)cc3cnccc23)cc1` [Example 91, 7-(2-hydroxy-phenyl)-isoquinoline-5-sulfonic acid {2-[3-(4-nitro-phenyl)-propylamino]-ethyl}-amide, dihydrochloride salt], the IC50 was not above 2000 nM.
